From PMC3551932, “STK295900, a Dual Inhibitor of Topoisomerase 1 and 2, Induces G2 Arrest in the Absence of DNA Damage” (PLoS ONE, 2013)

What was measured:
HeLa cells [1] = assay: Cell growth inhibition assay, HeLa; type: cell-based, human; conditions: Homo sapiens, 96 h, growth up to 4 days
Text: (§1) Human epitheloid cervical carcinoma HeLa cells, human breast adenocarcinoma MCF7 and MDA-MB-231cells, human hepatocellular carcinoma HepG2 cells, human colon adenocarcinoma HT-29 cells, and human colorectal carcinoma HCT-116 cells were purchased from ATCC® and maintained in DMEM medium. Human prostate carcinoma PC-3 cells (purchased from ATCC®), human gastric carcinoma SNU-484 and SNU-601(obtained from Korean Cell Line Bank (KCLB)), human leukemia K-562 and HL-60 cells (purchased from ATCC®), immortalized human prostate epithelial 267B1cells, and immortalized human embryonic lung fibroblast MRC5CV1 cells were maintained in RPMI 1640 medium whereas immortalized retinal pigment epithelial hTERT RPE-1 cells (purchased from ATCC®) were maintained in DMEM/F12 medium. All cell lines were cultured in media supplemented with 10% fetal bovine serum, 100 U/ml penicillin, and […] streptomycin at 37°C in a 5% CO2 incubator.
(§2) Cells were seeded at the appropriate amount (1–2×10^3 cells) in triplicate in 96-well plates for 24 h and then treated with various concentrations of STK295900. Cell growth was determined by using EZ-CyTox cell viability assay kit (Daeil Lab. Service, Seoul, Korea). Ten microliters of WST solution were added to the treated cells at 24, 48, 72, and 96 h. Cells were further incubated at 37°C for 2 h and the absorbance was measured at 450 nm.

SNU-484 cells = assay: Cell growth inhibition assay, SNU-484; type: cell-based; conditions: Homo sapiens, 96 h; Table 1; SNU-484, gastric carcinoma; growth up to 4 days
Text: as §1, §2

HT-29 cells = assay: Cell growth inhibition assay, HT-29; type: cell-based, human; conditions: Homo sapiens, HT-29, 96 h, growth up to 4 days
Text: as §1, §2

SNU-601 cells = assay: Cell growth inhibition assay, SNU-601; type: cell-based; conditions: Homo sapiens, 96 h; Table 1; SNU-601, gastric carcinoma; growth up to 4 days
Text: as §1, §2

hTERT RPE-1 cells = assay: Cell growth inhibition assay, hTERT RPE-1; type: cell-based, human; conditions: Homo sapiens, hTERT-RPE1, 96 h; Table 2 comparison; hTERT RPE-1, non-cancer; growth up to 4 days
Text: as §1, §2

[2] = target: T1, calf thymus topoisomerase 1 (Bos taurus, UniProt F1MN93); assay: Supercoiled DNA relaxation assay for topoisomerase 1; type: biochemical
T1 construct: purified calf thymus topoisomerase 1; purchased Takara Bio, Shiga, Japan; host or cells: calf thymus (tissue-purified)
T1 sequence (F1MN93 1-767): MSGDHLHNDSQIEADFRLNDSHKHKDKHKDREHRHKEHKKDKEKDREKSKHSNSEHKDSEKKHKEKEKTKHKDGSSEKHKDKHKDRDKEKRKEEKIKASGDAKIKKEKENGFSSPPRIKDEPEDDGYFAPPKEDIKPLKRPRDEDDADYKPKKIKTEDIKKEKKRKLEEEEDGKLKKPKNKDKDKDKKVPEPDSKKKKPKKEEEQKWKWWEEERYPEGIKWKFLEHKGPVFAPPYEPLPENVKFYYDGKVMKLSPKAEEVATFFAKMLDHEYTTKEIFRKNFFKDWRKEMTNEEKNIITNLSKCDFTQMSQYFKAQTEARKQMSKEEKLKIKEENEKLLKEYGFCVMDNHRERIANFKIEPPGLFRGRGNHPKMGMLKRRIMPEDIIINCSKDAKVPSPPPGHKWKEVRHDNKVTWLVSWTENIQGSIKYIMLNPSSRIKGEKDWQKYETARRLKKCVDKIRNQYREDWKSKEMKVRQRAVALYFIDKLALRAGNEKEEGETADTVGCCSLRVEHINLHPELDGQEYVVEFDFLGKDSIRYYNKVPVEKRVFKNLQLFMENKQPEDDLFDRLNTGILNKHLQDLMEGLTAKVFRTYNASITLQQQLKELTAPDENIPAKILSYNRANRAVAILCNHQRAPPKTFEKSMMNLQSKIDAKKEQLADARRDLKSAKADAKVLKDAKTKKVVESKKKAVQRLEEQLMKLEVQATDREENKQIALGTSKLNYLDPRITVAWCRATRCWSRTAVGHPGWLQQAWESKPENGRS

HeLa cells [3] = assay: Mitotic index (Hoechst 33342 staining, mitotic cells counted); type: cell-based, human; conditions: various concentrations, 24 h
Text: Given its strong growth inhibitory effect on various cancer cell types, STK295900 was examined to determine its effect on cell cycle distribution using flow cytometry analysis. […] We then analyzed whether the increasing G2/M population in Fig. 2A is indeed G2 or M phase by determining the mitotic index and investigating the cell cycle regulatory proteins. To determine mitotic index, the treated cells were stained with Hoechst 33342 and then mitotic cells were counted. […] (A) Flow cytometric analysis for cell cycle distribution. HeLa cells were treated with the indicated concentrations of STK295900 for 24 h. Treated cells were then stained with propidium iodide (PI) and processed for cell cycle analysis. The bar graph represents the mean percentage of each cell cycle phase ± SD from three independent experiments. * = p<0.05 versus the respective G1, S, or G2/M phase of DMSO-treated cells. […] HeLa cells were treated with the indicated concentrations of STK295900 for 24 h. Cells were then stained with Hoechst 33342 and mitotic cells were counted. […] (C) Cell cycle related proteins expression.

K-562 cells = assay: Cell growth inhibition assay, K-562; type: cell-based; conditions: Homo sapiens, K562, 96 h; Table 1; K-562, leukemia; growth up to 4 days
Text: as §1, §2

MDA-MB-231 cells = assay: Cell growth inhibition assay, MDA-MB-231; type: cell-based; conditions: Homo sapiens, 96 h; Table 1; MDA-MB-231, breast adenocarcinoma; growth up to 4 days
Text: as §1, §2

Which IC50 (HeLa cells [1]; Table 1, cervical carcinoma) does the source give for Nc1ccc(-c2nc3ccc(-c4ccc5nc(-c6ccc(N)cc6)[nH]c5c4)cc3[nH]2)cc1 [STK295900, 4,4′-(3H,3′H-5,5′-bibenzimidazole-2,2′-diyl)dianiline] here?
The IC50 was 520 nM.

What about the IC50 (HeLa cells [1]; Table 2 comparison) of the same molecule?
The IC50 was 640 nM.

And the IC50 (SNU-484 cells)?
The IC50 was 1210 nM.

And the IC50 (HT-29 cells; Table 1, HT-29, colon adenocarcinoma)?
The IC50 was 270 nM.

What about the IC50 (HT-29 cells; Table 2 comparison, HT-29) of the same molecule?
Its IC50 is 210 nM.

What about the IC50 (SNU-601 cells) of the same molecule?
Its IC50 is 2210 nM.

And the IC50 (hTERT RPE-1 cells)?
The IC50 was 3430 nM.

And the “supercoiled DNA at high concentrations (Top 1 catalytic activity)” value ([2]; high concentrations (50 and 100 µM))?
The value was “supercoiled DNA could be observed”.

What about the “Top 1-mediated DNA relaxation” value ([2]; pBR322, 37°C, 30 min, various concentrations) of the same molecule?
The value was “inhibited DNA relaxation activity of Top 1 in a dose-dependent manner”.

What about the mitotic index (HeLa cells [3]) of the same molecule?
The mitotic index was “no significant change in mitotic index”.

What about the IC50 (K-562 cells) of the same molecule?
The IC50 was 1380 nM.

What about the IC50 (MDA-MB-231 cells) of the same molecule?
The IC50 was 510 nM.
